Laboratory results taken from patent US12171745B2, “Compositions and methods for treating non-hemorrhagic closed head injury” (Boulder BioScience LLC, priority 2022, dated 2024).

Assays:
[1] = tested on: Moderate-to-Severe TBI in the Sprague Dawley Rat; assay: Histology analysis (H&E, NeuN) after lateral fluid percussion TBI; type: in vivo; conditions: 10 days post FPI
Source text: (§1) Evaluation of 3,3′-diindolylmethane (DIM) in a clinically relevant animal model of Traumatic Brain Injury (TBI) utilized the Lateral Fluid Percussion (LFP) brain injury method. LFP is the most established and frequently used method for evaluating mixed focal and diffuse brain injury (Thompson H J, Lifshitz J, Marklund N, Grady M S, Graham D I, Hovda D A, McIntosh T K. Lateral fluid percussion brain injury: a 15-year review and evaluation. J Neurotrauma. 2005 January; 22(1):42-75.). Using rats, the parasagittal LFP model recreates the physiological, pathological, and neurobehavioral sequela of TBI in humans. […] Over the days following surgery, rats were assessed for sensorimotor deficits, associative learning and memory, cortical and hippocampal edema, Extracellular Vesicle (EV) levels, and histopathological damage. […]
(§2) Approximately 12-24 h after the preparation surgery, the rats were anesthetized with 3% isoflurane, 70% nitrous oxide and 30% oxygen, intubated, connected to a respirator, and ventilated to be maintained on 1-3% isoflurane in a mixture of 70% nitrous oxide and oxygen. […] Following administration of pancuronium, TBI DIM Premix and Vehicle group rats inspired oxygen was reduced to 21% to maintain blood pO2 levels at approximately 85-95 mmHg. pCO2 levels were monitored to remain at physiological levels of 34 to 46 mmHg. […]

[2] = tested on: Moderate-to-Severe TBI in the Sprague Dawley Rat; assay: Extracellular Vesicle (EV) isolation and measurement after lateral fluid percussion TBI; type: in vivo; conditions: plasma EVs 1 day post-surgery, NTA
Source text: as §1, §2

[3] = Eur. J. Pharmacol. 2022; 919:174812; cited from earlier work
[4] = Solubility of aripiprazole in the SMEDDS DIM formulation
[5] = Clin. Cancer Res. 10:5233-5241 (2004); cited from earlier work

c1ccc2c(Cc3c[nH]c4ccccc34)c[nH]c2c1 [DIM, 3,3′-diindolylmethane]
Animals with cortical contusion absent [1]: 50% | EV concentration (numbers) ([2]; versus TBI Vehicle, p=0.0415): prevented the significant increase in EV numbers | EV particle size ([2]; versus untreated TBI animals, p=0.0117): maintenance of a larger EV particle size | Anti-thrombotic activity [3]: anti-thrombotic activity | Bleeding time [3]: prolong bleeding time

O=C1CCc2ccc(OCCCCN3CCN(c4cccc(Cl)c4Cl)CC3)cc2N1 [aripiprazole]
Solubility of the aripiprazole in the SMEDDS DIM formulation [4]: approximately 1.5% | Dissolution of aripiprazole in SMEDDS DIM, observation ([4]; 1.2% (10 mg aripiprazole, 0.81 grams SMEDDS DIM), stored overnight, warmed to about 35 degrees C.): all had dissolved | Aripiprazole still in suspension ([4]; 2.0% (10 mg aripiprazole, 0.49 grams SMEDDS DIM)): less than 2 mg | Dissolution of aripiprazole in SMEDDS DIM, observation ([4]; 2.0% (10 mg aripiprazole, 0.49 grams SMEDDS DIM), stored overnight, warmed to about 35 degrees C.): had not quite dissolved | Dissolution of aripiprazole in SMEDDS DIM, observation ([4]; 5.0% (25 mg aripiprazole, 0.475 grams SMEDDS DIM)): white solids clearly present | Dissolution of aripiprazole in SMEDDS DIM, observation ([4]; 10% (50 mg aripiprazole, 0.45 grams SMEDDS DIM)): white solids clearly present | Dose of aripiprazole that can be dissolved ([4]; in standard dose of 100 mg DIM contained in 825 mg of the SMEDDS DIM): up to 10 mg

OCc1c[nH]c2ccccc12 [indole-3-carbinol]
Conversion in vivo [5]: converts to DIM and LTR in vivo
